Experimental data: ChEMBL document CHEMBL5034001 (J Med Chem, 2021)
Activity calls are given as the source filed them. The rule behind the calls is not given here.

What was measured:
[1] = system: SR; test: Antiproliferative activity against human SR cells assessed as inhibition of cell growth incubated for 72 hrs by CCK8 assay; type: functional, cell-based
[2] = biological target: T1, ALK tyrosine kinase receptor (Homo sapiens, UniProt Q9UM73); test: Induction of ALK degradation in human SR cells at 500 nM after 16 hrs by Western blot analysis; type: cell-based
T1 sequence (Q9UM73 19-1620 limits assumed): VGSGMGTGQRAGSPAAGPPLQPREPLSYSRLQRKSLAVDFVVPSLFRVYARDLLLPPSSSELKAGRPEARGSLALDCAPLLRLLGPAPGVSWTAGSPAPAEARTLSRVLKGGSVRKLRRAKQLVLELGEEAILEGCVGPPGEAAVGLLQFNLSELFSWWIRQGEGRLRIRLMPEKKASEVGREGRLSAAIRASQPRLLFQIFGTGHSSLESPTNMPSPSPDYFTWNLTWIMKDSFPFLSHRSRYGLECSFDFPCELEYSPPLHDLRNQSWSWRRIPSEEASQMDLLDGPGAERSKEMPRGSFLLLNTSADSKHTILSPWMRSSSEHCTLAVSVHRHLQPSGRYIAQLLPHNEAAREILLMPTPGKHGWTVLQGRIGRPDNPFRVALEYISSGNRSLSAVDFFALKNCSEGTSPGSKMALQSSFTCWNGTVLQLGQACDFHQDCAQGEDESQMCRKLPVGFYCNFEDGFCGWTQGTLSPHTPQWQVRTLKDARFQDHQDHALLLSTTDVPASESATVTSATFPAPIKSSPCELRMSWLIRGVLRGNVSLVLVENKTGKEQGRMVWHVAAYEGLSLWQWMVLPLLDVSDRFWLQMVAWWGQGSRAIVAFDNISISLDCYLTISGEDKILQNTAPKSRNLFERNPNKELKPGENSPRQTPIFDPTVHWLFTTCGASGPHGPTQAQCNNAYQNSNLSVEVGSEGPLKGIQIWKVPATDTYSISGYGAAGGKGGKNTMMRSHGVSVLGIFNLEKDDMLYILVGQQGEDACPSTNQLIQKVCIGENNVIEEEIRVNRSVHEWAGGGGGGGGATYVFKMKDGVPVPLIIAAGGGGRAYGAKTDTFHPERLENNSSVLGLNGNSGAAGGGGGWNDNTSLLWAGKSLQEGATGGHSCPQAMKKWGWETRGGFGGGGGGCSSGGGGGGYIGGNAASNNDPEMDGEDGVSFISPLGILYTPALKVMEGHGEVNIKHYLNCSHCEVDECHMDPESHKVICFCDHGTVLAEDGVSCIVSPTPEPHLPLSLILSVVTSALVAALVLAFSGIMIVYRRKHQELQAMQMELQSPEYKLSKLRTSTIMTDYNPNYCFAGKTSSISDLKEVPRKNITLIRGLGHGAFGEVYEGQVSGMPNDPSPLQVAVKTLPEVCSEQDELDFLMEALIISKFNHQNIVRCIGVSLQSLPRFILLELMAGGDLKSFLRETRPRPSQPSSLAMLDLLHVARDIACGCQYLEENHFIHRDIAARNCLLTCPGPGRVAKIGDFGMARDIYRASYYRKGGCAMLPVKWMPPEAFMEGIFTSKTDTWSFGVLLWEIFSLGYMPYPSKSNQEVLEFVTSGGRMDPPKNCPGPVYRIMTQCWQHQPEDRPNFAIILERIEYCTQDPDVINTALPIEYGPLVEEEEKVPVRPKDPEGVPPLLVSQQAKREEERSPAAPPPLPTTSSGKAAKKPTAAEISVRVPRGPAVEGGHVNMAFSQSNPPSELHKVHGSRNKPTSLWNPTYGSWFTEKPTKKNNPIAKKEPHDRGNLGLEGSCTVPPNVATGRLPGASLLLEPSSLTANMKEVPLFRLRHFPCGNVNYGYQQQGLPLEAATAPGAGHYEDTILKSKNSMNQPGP

[3] = system: SR; test: Antiproliferative activity against human SR cells assessed as inhibition of cell growth at 10 nM preincubated for 5 days followed by compound washout and measured on day 7 and 9 by CCK8 assay; type: functional, cell-based; details: time 5.0 day
[4] = biological target: Signal transducer and activator of transcription 3 (Homo sapiens) (UniProt P40763); test: Inhibition of STAT3 downstream signalling in human SR cells assessed as reduction in pSTAT3 level at 10 nM by Western blot analysis; type: cell-based
Sequence of Signal transducer and activator of transcription 3 (Homo sapiens) (P40763 whole entry): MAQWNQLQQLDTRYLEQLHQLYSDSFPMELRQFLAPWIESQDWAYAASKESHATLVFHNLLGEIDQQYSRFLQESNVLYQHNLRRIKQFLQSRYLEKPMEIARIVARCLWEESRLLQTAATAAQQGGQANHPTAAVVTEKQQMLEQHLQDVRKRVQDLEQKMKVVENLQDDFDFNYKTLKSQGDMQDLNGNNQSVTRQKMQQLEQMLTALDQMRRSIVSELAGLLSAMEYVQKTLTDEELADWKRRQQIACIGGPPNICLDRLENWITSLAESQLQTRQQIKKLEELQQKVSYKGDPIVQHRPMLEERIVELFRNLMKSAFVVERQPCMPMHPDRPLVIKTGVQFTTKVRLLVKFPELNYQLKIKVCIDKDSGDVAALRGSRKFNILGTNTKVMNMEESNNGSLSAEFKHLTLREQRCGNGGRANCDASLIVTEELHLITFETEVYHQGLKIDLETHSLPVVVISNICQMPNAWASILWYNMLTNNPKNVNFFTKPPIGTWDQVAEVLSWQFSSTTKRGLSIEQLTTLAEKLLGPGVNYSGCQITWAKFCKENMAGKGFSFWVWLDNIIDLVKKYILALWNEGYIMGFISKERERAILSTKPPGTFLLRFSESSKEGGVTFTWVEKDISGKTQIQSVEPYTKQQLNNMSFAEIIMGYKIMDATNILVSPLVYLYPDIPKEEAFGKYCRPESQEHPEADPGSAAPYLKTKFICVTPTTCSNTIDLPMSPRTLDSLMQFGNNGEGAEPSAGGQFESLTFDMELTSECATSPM

[5] = biological target: Signal transducer and activator of transcription 3 (Homo sapiens) (UniProt P40763); test: Inhibition of STAT3 downstream signalling in human NCI-H2228 cells assessed as reduction in pSTAT3 level at 1 to 1000 nM by Western blot analysis; type: cell-based; details: dose 1-1000 nM
[6] = system: HEK-293T; test: Antiproliferative activity against human 293T cells overexpressing ALK G1202R mutant assessed as cell growth inhibition after 72 hrs; type: functional, cell-based
[7] = system: SR; test: Induction of G1 cell cycle arrest in human SR cells at 100 nM after 24 to 48 hrs; type: functional, cell-based; details: time 24-48 hrs
[8] = system: Calu-1; test: Induction of G1 cell cycle arrest in human Calu-1 cells at 100 nM after 24 to 48 hrs; type: functional, cell-based; details: time 24-48 hrs
[9] = system: MDA-MB-231; test: Induction of G1 cell cycle arrest in human MDA-MB-231 cells at 100 nM after 24 to 48 hrs; type: functional, cell-based; details: time 24-48 hrs
[10] = system: Calu-1; test: Induction of apoptosis in human Calu-1 cells at 100 nM after 72 hrs; type: functional, cell-based
[11] = system: MDA-MB-231; test: Induction of apoptosis in human MDA-MB-231 cells at 100 nM after 72 hrs; type: functional, cell-based
[12] = system: Calu-1; test: Inhibition of cell migration in human Calu-1 cells at 100 nM after 12 to 24 hrs by wound healing assay; type: functional, cell-based; details: time lower […], time upper 24.0 hrs
[13] = system: MDA-MB-231; test: Inhibition of cell migration in human MDA-MB-231 cells at 100 nM after 48 hrs by wound healing assay; type: functional, cell-based
[14] = system: MDA-MB-231; test: Inhibition of cell migration in human MDA-MB-231 cells assessed as wound confluence ratio at 500 nM after 48 hrs by wound healing assay; type: functional
[15] = biological target: T1, ALK tyrosine kinase receptor; test: Induction of ALK degradation in human SR cells assessed as protein stability at 50 ug/ml after 24 hrs; type: cell-based; details: dose 50.0 µg/ml
[16] = biological target: Focal adhesion kinase 1 (Homo sapiens) (UniProt Q05397); test: Induction of FAK degradation in human MDA-MB-231 cells assessed as protein stability at 50 ug/ml after 8 hrs; type: cell-based; details: dose 50.0 µg/ml
Sequence of Focal adhesion kinase 1 (Homo sapiens) (Q05397 2-1052 limits assumed): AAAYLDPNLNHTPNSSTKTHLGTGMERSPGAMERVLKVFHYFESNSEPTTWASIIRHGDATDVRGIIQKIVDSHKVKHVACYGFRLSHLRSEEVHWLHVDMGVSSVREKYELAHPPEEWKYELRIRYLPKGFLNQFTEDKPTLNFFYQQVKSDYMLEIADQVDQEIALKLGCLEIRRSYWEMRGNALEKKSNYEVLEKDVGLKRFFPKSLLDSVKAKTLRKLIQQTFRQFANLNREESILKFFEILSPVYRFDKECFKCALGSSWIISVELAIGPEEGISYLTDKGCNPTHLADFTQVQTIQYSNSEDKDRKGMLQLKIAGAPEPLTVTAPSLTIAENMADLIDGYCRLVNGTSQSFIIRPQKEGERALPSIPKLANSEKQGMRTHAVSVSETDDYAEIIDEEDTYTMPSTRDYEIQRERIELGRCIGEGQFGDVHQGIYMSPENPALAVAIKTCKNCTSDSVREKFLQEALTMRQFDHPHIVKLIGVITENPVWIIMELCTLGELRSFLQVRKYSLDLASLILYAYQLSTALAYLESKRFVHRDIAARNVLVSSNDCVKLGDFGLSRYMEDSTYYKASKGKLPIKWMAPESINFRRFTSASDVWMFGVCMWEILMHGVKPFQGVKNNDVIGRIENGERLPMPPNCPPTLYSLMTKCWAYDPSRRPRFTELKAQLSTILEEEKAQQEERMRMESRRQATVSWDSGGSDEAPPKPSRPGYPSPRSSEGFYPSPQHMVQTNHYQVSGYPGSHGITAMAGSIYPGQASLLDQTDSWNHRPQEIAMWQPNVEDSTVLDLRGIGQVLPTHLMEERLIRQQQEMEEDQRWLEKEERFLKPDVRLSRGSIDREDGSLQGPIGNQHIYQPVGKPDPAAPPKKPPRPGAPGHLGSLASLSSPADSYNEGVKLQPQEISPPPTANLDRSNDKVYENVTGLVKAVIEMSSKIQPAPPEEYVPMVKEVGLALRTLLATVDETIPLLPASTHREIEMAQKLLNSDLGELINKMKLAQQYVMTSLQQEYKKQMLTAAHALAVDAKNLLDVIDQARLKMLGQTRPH

[17] = biological target: Protein-tyrosine kinase 2-beta (Homo sapiens) (UniProt Q14289); test: Induction of PYK2 degradation in human MDA-MB-231 cells assessed as protein stability at 50 ug/ml after 8 hrs; type: cell-based; details: dose 50.0 µg/ml
Sequence of Protein-tyrosine kinase 2-beta (Homo sapiens) (Q14289 whole entry, looked up): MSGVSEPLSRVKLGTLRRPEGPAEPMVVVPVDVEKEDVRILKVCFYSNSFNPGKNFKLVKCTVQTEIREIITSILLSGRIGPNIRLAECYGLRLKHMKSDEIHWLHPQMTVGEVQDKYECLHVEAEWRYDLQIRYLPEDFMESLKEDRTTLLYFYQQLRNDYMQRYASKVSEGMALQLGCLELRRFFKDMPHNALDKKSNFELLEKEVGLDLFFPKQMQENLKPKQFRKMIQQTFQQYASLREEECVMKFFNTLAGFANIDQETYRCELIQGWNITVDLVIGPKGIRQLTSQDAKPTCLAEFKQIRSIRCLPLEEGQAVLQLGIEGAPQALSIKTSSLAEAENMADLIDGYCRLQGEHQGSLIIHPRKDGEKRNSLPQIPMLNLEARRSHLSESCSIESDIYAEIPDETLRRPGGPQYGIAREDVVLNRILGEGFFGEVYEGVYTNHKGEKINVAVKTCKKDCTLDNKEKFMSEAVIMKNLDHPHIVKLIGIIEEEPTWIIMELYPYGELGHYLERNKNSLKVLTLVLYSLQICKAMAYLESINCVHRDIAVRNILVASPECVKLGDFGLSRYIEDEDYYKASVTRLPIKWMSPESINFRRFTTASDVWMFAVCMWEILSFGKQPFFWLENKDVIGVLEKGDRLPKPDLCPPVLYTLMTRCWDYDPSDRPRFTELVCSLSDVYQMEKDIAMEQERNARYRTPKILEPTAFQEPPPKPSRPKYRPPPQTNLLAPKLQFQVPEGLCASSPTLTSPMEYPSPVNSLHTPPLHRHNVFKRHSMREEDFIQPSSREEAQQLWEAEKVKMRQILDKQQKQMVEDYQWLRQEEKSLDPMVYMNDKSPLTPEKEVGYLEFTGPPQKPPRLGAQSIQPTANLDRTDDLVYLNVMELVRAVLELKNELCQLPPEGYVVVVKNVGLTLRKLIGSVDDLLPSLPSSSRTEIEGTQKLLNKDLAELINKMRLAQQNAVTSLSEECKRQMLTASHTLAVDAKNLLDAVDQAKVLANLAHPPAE

SMILES: COc1cc(N2CCC(N3CCN(C(=O)CCCCCNc4cccc5c4C(=O)N(C4CCC(=O)NC4=O)C5=O)CC3)CC2)ccc1Nc1ncc(Cl)c(Nc2ccccc2P(C)(C)=O)n1 (stereo not drawn)
- IC50 [1]: 3.3 nM

SMILES: COc1cc(N2CCC(N3CCN(C(=O)CCOCCOCCOCCNc4cccc5c4C(=O)N(C4CCC(=O)NC4=O)C5=O)CC3)CC2)ccc1Nc1ncc(Cl)c(Nc2ccccc2P(C)(C)=O)n1 (stereo not drawn)
- IC50 [1]: 5.3 nM

SMILES: COc1cc(N2CCC(N3CCN(C(=O)CCCCNc4cccc5c4C(=O)N(C4CCC(=O)NC4=O)C5=O)CC3)CC2)ccc1Nc1ncc(Cl)c(Nc2ccccc2P(C)(C)=O)n1 (stereo not drawn)
- IC50 [1]: 7.4 nM

SMILES: COc1cc(N2CCC(N3CCN(C(=O)CCOCCOCCOCCOCCNc4cccc5c4C(=O)N(C4CCC(=O)NC4=O)C5=O)CC3)CC2)ccc1Nc1ncc(Cl)c(Nc2ccccc2P(C)(C)=O)n1 (stereo not drawn)
- IC50 [1]: 11.2 nM

SMILES: COc1cc(N2CCC(N3CCN(C(=O)CCCNc4cccc5c4C(=O)N(C4CCC(=O)NC4=O)C5=O)CC3)CC2)ccc1Nc1ncc(Cl)c(Nc2ccccc2P(C)(C)=O)n1 (stereo not drawn)
- IC50 [1]: 2.9 nM

SMILES: COc1cc(N2CCC(N3CCN(C(=O)CCCCCCNc4cccc5c4C(=O)N(C4CCC(=O)NC4=O)C5=O)CC3)CC2)ccc1Nc1ncc(Cl)c(Nc2ccccc2P(C)(C)=O)n1 (stereo not drawn)
- IC50 [1]: 4.8 nM

SMILES: COc1cc(N2CCC(N3CCN(C(=O)CNc4cccc5c4C(=O)N(C4CCC(=O)N(C)C4=O)C5=O)CC3)CC2)ccc1Nc1ncc(Cl)c(Nc2ccccc2P(C)(C)=O)n1 (stereo not drawn)
- IC50 [1]: 16.3 nM
- Activity [2]: Active

SMILES: COc1cc(N2CCC(N3CCN(C(=O)CCOCCNc4cccc5c4C(=O)N(C4CCC(=O)NC4=O)C5=O)CC3)CC2)ccc1Nc1ncc(Cl)c(Nc2ccccc2P(C)(C)=O)n1 (stereo not drawn)
- IC50 [1]: 3.8 nM

SMILES: COc1cc(N2CCC(N3CCN(C(=O)CCOCCOCCOCCOCCOCCNc4cccc5c4C(=O)N(C4CCC(=O)NC4=O)C5=O)CC3)CC2)ccc1Nc1ncc(Cl)c(Nc2ccccc2P(C)(C)=O)n1 (stereo not drawn)
- IC50 [1]: 14 nM

SMILES: COc1cc(N2CCC(N3CCN(C)CC3)CC2)ccc1Nc1ncc(Cl)c(Nc2ccccc2P(C)(C)=O)n1 [BRIGATINIB]
- IC50 [1]: 3.3 nM
- Activity [3]: inactive
- inhibition [4]: Active
- inhibition [5]: inactive
- IC50 [6]: 850 nM
- Activity [7]: Active
- Activity [8]: inactive
- Activity [9]: inactive
- Activity [10]: inactive
- Activity [11]: inactive
- inhibition [12]: inactive
- inhibition [13]: inactive
- inhibition at 0.5 µM [14]: 56%

SMILES: C[C@@H]1C[C@@H]([C@H](O)CC2CC(=O)NC(=O)C2)C(=O)[C@@H](C)C1
- Activity [15]: Active
- Activity [16]: Active
- Activity [17]: Active

SMILES: COc1cc(N2CCC(N3CCN(C(=O)CCNc4cccc5c4C(=O)N(C4CCC(=O)NC4=O)C5=O)CC3)CC2)ccc1Nc1ncc(Cl)c(Nc2ccccc2P(C)(C)=O)n1 (stereo not drawn)
- IC50 [1]: 9.6 nM

SMILES: COc1cc(N2CCC(N3CCN(C(=O)CCOCCOCCNc4cccc5c4C(=O)N(C4CCC(=O)NC4=O)C5=O)CC3)CC2)ccc1Nc1ncc(Cl)c(Nc2ccccc2P(C)(C)=O)n1 (stereo not drawn)
- IC50 [1]: 3.6 nM
